US20230364032A1, “USE OF 2-HOBA TO TREAT ATHEROSCLEROSIS” (Vanderbilt University, priority 2020, published 2023)

Test: 2-HOBA and 4-HOBA levels in plasma and tissues of Ldlr−/− mice (LC/MS)
Format: in vivo
Details: for concentration at 16 weeks: Ldlr−/− on C57BL/6 background, mouse, plasma, oral, 1 g/L in drinking water, male Ldlr−/− mice after 16 weeks of treatment with 1 g/L of water; for levels in the aorta and heart / plasma levels of 2-HOBA versus 4-HOBA: male Ldlr−/− mice; for levels in the aorta and heart: 30 min after oral gavage; for plasma levels of 2-HOBA versus 4-HOBA: 30 min after oral gavage of 5 mg
Method: FIG. 11A-11C show the concentration of 2-HOBA or 4-HOBA was measured in plasma and tissues from Ldlr^−/− mice. A. Eight week old male Ldlr^−/− mice were fed WD for 16 weeks and were continuously treated with water containing either 2-HOBA (n=9) or 4-HOBA (n=6). Plasma was collected 30 min after oral gavage of mice with either 2-HOBA or 4-HOBA (5 mg each mouse). (Mean±SEM shown for each, p=0.388 Mann-Whitney Test.) B-C. Levels of HOBA were measured in the aorta and heart of male Ldlr^−/− mice consuming a chow diet 30 min after oral gavage of 2-HOBA or 4-HOBA (5 mg each mouse). (Mean±SEM shown for each, N.S. Student t test). The levels of 2-HOBA or 4-HOBA were measured in the plasma and tissues using LC/MS as described in the Methods.
Ldlr^−/− and WT on C57BL/6 background mice were obtained from the Jackson Laboratory. Animal protocols were performed according to the regulations of Vanderbilt University's Institutional Animal Care and Usage Committee. Mice were maintained on chow or a Western-type diet containing 21% milk fat and 0.15% cholesterol (Teklad). Eight week old, female Ldlr^−/− mice on a chow diet were pretreated with vehicle alone (Water) or containing either 1 g/L of 4-HOBA or 1 g/L of 2-HOBA. 4-HOBA (as hydrochloride salt) was synthesized as previously described^21. 2-HOBA (as the acetate salt, CAS 1206675-01-5) was manufactured by TSI Co., Ltd. (Missoula, MT) and obtained from Metabolic Technologies, Inc., Ames, IA^24. A commercial production lot was used (Lot 16120312), and the purity of the commercial lot was verified to be >99% via HPLC and NMR spectroscopy^24. After two weeks, the mice continued to receive these treatments but were switched to a western diet for 16 weeks to induce hypercholesterolemia and atherosclerosis. Similarly, 12 week-old male Ldlr^−/− mice were pretreated with vehicle alone (water) or containing 1 g/L of 2-HOBA for two weeks and were then switched to a western diet for 16 weeks to induce hypercholesterolemia and atherosclerosis, while continuing the treatment with 2-HOBA or water alone^58, 59, 60 Based on the average weight and daily consumption of water per mouse the estimated daily dosage with 1 g/L of 2-HOBA is 200 mg/Kg. […] Eight week old, male Ldlr^−/− mice were fed a western diet for 16 weeks and were continuously treated with water containing either 2-HOBA or 4-HOBA. Urine samples were collected using metabolic cages (2 mice in one cage) during 18 h after oral gavage with either 2-HOBA or 4-HOBA (5 mg each mouse).
Measurement of 2-HOBA and 4-HOBA was performed by LC/MS after derivatization with phenylisothiocyanate (PITC), and using [^2H4]-2-HOBA as an internal standard as previously described for 2-HOBA^71 (See FIG. 23). For these assays, the Waters Xevo-TQ-Smicro triple quadrupole mass spectrometer operating in positive ion multiple reaction monitoring (MRM) mode monitored the following transitions: for PITC-2-HOBA or PITC-4-HOBA, m/z 259→107@20 eV (quantifier transition) and m/z 259→153 @20 eV (qualifier transition); for PITC-[^2H4]2-HOBA m/z 263 →107@20 eV (quantifier transition), m/z 263→111 @20 eV (qualifier transition). Abundance for PITC-2-HOBA was calculated based on the ratio of peak area versus that of PITC-[^2H4]2-HOBA. Because the transition reactions for PITC-4-HOBA are less efficient than for PITC-2-HOBA, the ratio of peak areas for PITC-4-HOBA/PITC-[^2l H4]2-HOBA was multiplied by the correction factors 3.9 and 5.7 when using the m/z 107 and m/z 153 transition, respectively (See FIG. 24).

| SMILES | concentration at 16 weeks | levels in the aorta and heart | plasma levels of 2-HOBA versus 4-HOBA |
| --- | --- | --- | --- |
| NCc1ccc(O)cc1 [4-HOBA, 4-hydroxybenzylamine, reference compound] | 25 ± 3 ng/mL | similar | not significantly different |
| NCc1ccccc1O [2-HOBA, 2-hydroxybenzylamine] | 469 ± 38 ng/mL | similar | not significantly different |
